Source: US12370192B2, “Azole-fused pyridazin-3(2H)-one derivatives” (TAKEDA PHARMACEUTICAL COMPANY LIMITED, priority 2019, dated 2025)

Tests used:
human GPR139 receptor [1] = target: T1, human GPR139 receptor (Homo sapiens, UniProt Q6DWJ6); test: GPR139 Competition Binding (membrane-based, tritium-labeled ligand); details: T-REx-CHO membranes with human GPR139; 6.5 nM tritium-labeled ligand; 11-point curve, 30 μM maximum concentration; read-out: GPR139 Binding Affinity (pKi) (converted)
T1 construct: expressed in transfected cells; host or cells: T-REx-CHO (Thermo Fisher Scientific), doxycycline-induced
T1 sequence (Q6DWJ6 1-353): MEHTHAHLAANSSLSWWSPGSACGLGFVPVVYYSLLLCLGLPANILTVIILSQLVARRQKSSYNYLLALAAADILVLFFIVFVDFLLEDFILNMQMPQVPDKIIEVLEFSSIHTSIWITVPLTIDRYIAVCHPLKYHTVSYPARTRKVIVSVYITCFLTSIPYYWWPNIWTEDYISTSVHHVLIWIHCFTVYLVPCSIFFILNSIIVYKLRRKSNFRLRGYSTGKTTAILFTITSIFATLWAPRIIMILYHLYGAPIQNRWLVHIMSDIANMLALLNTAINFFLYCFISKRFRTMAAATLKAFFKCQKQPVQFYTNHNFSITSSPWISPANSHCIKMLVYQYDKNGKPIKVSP
Method in brief: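 Membranes came from doxycycline-induced T-REx-CHO cells expressing human GPR139. They were incubated 20 min at room temperature with 6.5 nM tritiated ligand and compound (11 points, top 30 μM) in HEPES pH 7.3 buffer with MgCl2/CaCl2. Filter-bound counts gave Ki by four-parameter fit, reported as pKi.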

human GPR139 receptor [2] = target: T1, human GPR139 receptor; test: Measurement of GPR139 Activation Via Calcium Signaling (FLIPR, T-REx-CHO cells); assay type: cell-based; details: T-REx-CHO cells stably expressing human GPR139, 11-point dose response, 10 μM maximum concentration, read-out: GPR139 Potency (pEC50) (converted)
Method in brief: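 Calcium flux read by FLIPR for 1 min after adding compounds (11 concentrations, maximum 10 μM) to doxycycline-induced (2 μg/mL, 17 h) T-REx-CHO cells expressing human GPR139. Cells dye-loaded 40 min at 37 °C in HBSS, 1 mM HEPES pH 7.4 with probenecid; activation reported as pEC50 from four-parameter logistic fit.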

Row | SMILES | Ki (human GPR139 receptor [1]) | EC50 (human GPR139 receptor [2])
1 | Cc1ccc([C@H](C)NC(=O)Cn2ncc3c(cnn3C(C)C)c2=O)c(F)c1 [Example 88, (S)—N-(1-(2-fluoro-4-methylphenyl)ethyl)-2-(1-isopropyl-4-oxo-1,4-dihydro-5H-pyrazolo[3,4-d]pyridazin-5-yl)acetamide] | 676 nM | 77.6 nM
2 | Cc1ccc([C@H](C)NC(=O)Cn2ncc3c(cnn3C(C)C)c2=O)cc1 [Example 89, (S)-2-(1-isopropyl-4-oxo-1,4-dihydro-5H-pyrazolo[3,4-d]pyridazin-5-yl)-N-(1-(p-tolyl)ethyl)acetamide] | 2190 nM | 44.7 nM
3 | Cc1ccc([C@H](C)NC(=O)Cn2ncc3c(c(C)nn3C(C)C)c2=O)c(F)c1 [Example 92, (S)—N-(1-(2-fluoro-4-methylphenyl)ethyl)-2-(1-isopropyl-3-methyl-4-oxo-1,4-dihydro-5H-pyrazolo[3,4-d]pyridazin-5-yl)acetamide] | 100 nM | 57.5 nM
4 | Cc1nn(C(C)C)c2cnn(CC(=O)N[C@@H](C)c3ccc(C(F)(F)F)cc3)c(=O)c12 [Example 94, (S)-2-(1-isopropyl-3-methyl-4-oxo-1,4-dihydro-5H-pyrazolo[3,4-d]pyridazin-5-yl)-N-(1-(4-(trifluoromethyl)phenyl)ethyl)acetamide] | 309 nM | 107 nM
5 | Cc1ccc([C@H](C)NC(=O)Cn2ncc3c(c(C)nn3C)c2=O)c(F)c1 [Example 99] | 95.5 nM | 123 nM
6 | Cc1nn(CC(=O)N[C@@H](C)c2ccc(C(F)(F)F)cn2)c(=O)c2c1c(C)nn2C1CC1 [Example 101, (S)-2-(1-cyclopropyl-3,4-dimethyl-7-oxo-1,7-dihydro-6H-pyrazolo[3,4-d]pyridazin-6-yl)-N-(1-(5-(trifluoromethyl)pyridin-2-yl)ethyl)acetamide] | 282 nM | 398 nM
7 | Cc1nn(CC(=O)N[C@@H](C)c2ccc(C(F)(F)F)cn2)c(=O)c2c1c(C)nn2C [Example 102, (S)—N-(1-(5-(trifluoromethyl)pyridin-2-yl)ethyl)-2-(1,3,4-trimethyl-7-oxo-1,7-dihydro-6H-pyrazolo[3,4-d]pyridazin-6-yl)acetamide] | 15100 nM | 209 nM
8 | Cc1nn(C(C)C)c2c(=O)n(CC(=O)N[C@@H](C)c3ccc(C(F)(F)F)cn3)ncc12 [Example 103, (S)-2-(1-isopropyl-3-methyl-7-oxo-1,7-dihydro-6H-pyrazolo[3,4-d]pyridazin-6-yl)-N-(1-(5-(trifluoromethyl)pyridin-2-yl)ethyl)acetamide] | 10000 nM | 219 nM
9 | Cc1nn(C2CC2)c2cnn(CC(=O)NC(C)c3ccc4c(c3)CCCO4)c(=O)c12 (stereo not shown) [Example 104, N-(1-(chroman-6-yl)ethyl)-2-(1-cyclopropyl-3-methyl-4-oxo-1,4-dihydro-5H-pyrazolo[3,4-d]pyridazin-5-yl)acetamide] | 794 nM | 61.7 nM
10 | Cc1nn(CC(=O)NC(C)c2ccc3c(c2)OCCO3)c(=O)c2c1c(C)nn2C1CC1 (stereo not shown) [Example 105, 2-(1-cyclopropyl-3,4-dimethyl-7-oxo-1,7-dihydro-6H-pyrazolo[3,4-d]pyridazin-6-yl)-N-(1-(2,3-dihydrobenzo[b][1,4]dioxin-6-yl)ethyl)acetamide] | 97.7 nM | 107 nM
11 | Cc1nn(C2CC2)c2cnn(CC(=O)NC(C)c3ccc4c(c3)OCCO4)c(=O)c12 (stereo not shown) [Example 106, 2-(1-cyclopropyl-3-methyl-4-oxo-1,4-dihydro-5H-pyrazolo[3,4-d]pyridazin-5-yl)-N-(1-(2,3-dihydrobenzo[b][1,4]dioxin-6-yl)ethyl)acetamide] | 2000 nM | 57.5 nM
12 | Cc1ccc([C@H](C)NC(=O)Cn2ncc3c(c(C)nn3C3CC3)c2=O)c(F)c1 [Example 108, (S)-2-(1-cyclopropyl-3-methyl-4-oxo-1,4-dihydro-5H-pyrazolo[3,4-d]pyridazin-5-yl)-N-(1-(2-fluoro-4-methylphenyl)ethyl)acetamide] | 75.9 nM | 34.7 nM
13 | COc1ccc([C@H](C)NC(=O)Cn2ncc3c(c(C)nn3C3CC3)c2=O)cc1 [Example 110, (S)-2-(1-cyclopropyl-3-methyl-4-oxo-1,4-dihydro-5H-pyrazolo[3,4-d]pyridazin-5-yl)-N-(1-(4-methoxyphenyl)ethyl)acetamide] | 1660 nM | 69.2 nM
14 | Cc1ccc([C@H](C)NC(=O)Cn2nc(C)c3c(c(C)nn3C)c2=O)c(F)c1 [Example 111, (S)—N-(1-(2-fluoro-4-methylphenyl)ethyl)-2-(1,3,7-trimethyl-4-oxo-1,4-dihydro-5H-pyrazolo[3,4-d]pyridazin-5-yl)acetamide] | 42.7 nM | 148 nM

Other lines, results leading:

Row | Ki (human GPR139 receptor [1]) | EC50 (human GPR139 receptor [2]) | SMILES
15 | 389 nM | 234 nM | Cc1nn(C(C)C)c2cnn(CC(=O)N[C@@H](C)c3ccc(OC(F)(F)F)cc3)c(=O)c12 [Example 93, (S)-2-(1-isopropyl-3-methyl-4-oxo-1,4-dihydro-5H-pyrazolo[3,4-d]pyridazin-5-yl)-N-(1-(4-(trifluoromethoxy)phenyl)ethyl)acetamide]
16 | 245 nM | 42.7 nM | Cc1nn(C2CC2)c2cnn(CC(=O)N[C@@H](C)c3ccc(C(F)(F)F)cc3)c(=O)c12 [Example 107, (S)-2-(1-cyclopropyl-3-methyl-4-oxo-1,4-dihydro-5H-pyrazolo[3,4-d]pyridazin-5-yl)-N-(1-(4-(trifluoromethyl)phenyl)ethyl)acetamide]
17 | 263 nM | 617 nM | Cc1nn(C)c2c(C)nn(CC(=O)N[C@@H](C)c3ccc(OC(F)(F)F)cc3)c(=O)c12 [Example 112, (S)—N-(1-(4-(trifluoromethoxy)phenyl)ethyl)-2-(1,3,7-trimethyl-4-oxo-1,4-dihydro-5H-pyrazolo[3,4-d]pyridazin-5-yl)acetamide]
18 | 178 nM | 151 nM | Cc1ccc([C@H](C)NC(=O)Cn2nc(C)c3c(c(C)nn3C)c2=O)cc1 [Example 113, (S)—N-(1-(p-tolyl)ethyl)-2-(1,3,7-trimethyl-4-oxo-1,4-dihydro-5H-pyrazolo[3,4-d]pyridazin-5-yl)acetamide]
19 | 204 nM | 132 nM | Cc1nn(C)c2c(C)nn(CC(=O)N[C@@H](C)c3ccc(C(F)(F)F)cc3)c(=O)c12 [Example 114, (S)—N-(1-(4-(trifluoromethyl)phenyl)ethyl)-2-(1,3,7-trimethyl-4-oxo-1,4-dihydro-5H-pyrazolo[3,4-d]pyridazin-5-yl)acetamide]
20 | 58.9 nM | 224 nM | C[C@H](NC(=O)Cn1ncc2c(c(C3CC3)nn2C)c1=O)c1ccc(C(F)(F)F)cc1 [Example 115, (S)-2-(3-cyclopropyl-1-methyl-4-oxo-1,4-dihydro-5H-pyrazolo[3,4-d]pyridazin-5-yl)-N-(1-(4-(trifluoromethyl)phenyl)ethyl)acetamide]
21 | 339 nM | 74.1 nM | COc1ccc([C@H](C)NC(=O)Cn2ncc3c(c(C4CC4)nn3C)c2=O)cc1 [Example 116, (S)-2-(3-cyclopropyl-1-methyl-4-oxo-1,4-dihydro-5H-pyrazolo[3,4-d]pyridazin-5-yl)-N-(1-(4-methoxyphenyl)ethyl)acetamide]
22 | 2.09 nM | 50.1 nM | Cc1ccc([C@H](C)NC(=O)Cn2nc(C)c3c(c(C4CC4)nn3C)c2=O)c(F)c1 [Example 117, (S)-2-(3-cyclopropyl-1,7-dimethyl-4-oxo-1,4-dihydro-5H-pyrazolo[3,4-d]pyridazin-5-yl)-N-(1-(2-fluoro-4-methylphenyl)ethyl)acetamide]
23 | 23.4 nM | 69.2 nM | Cc1nn(CC(=O)N[C@@H](C)c2ccc(OC(F)(F)F)cc2)c(=O)c2c(C3CC3)nn(C)c12 [Example 118, (S)-2-(3-cyclopropyl-1,7-dimethyl-4-oxo-1,4-dihydro-5H-pyrazolo[3,4-d]pyridazin-5-yl)-N-(1-(4-(trifluoromethoxy)phenyl)ethyl)acetamide]
24 | 7.94 nM | 33.9 nM | Cc1ccc([C@H](C)NC(=O)Cn2nc(C)c3c(c(C4CC4)nn3C)c2=O)cc1 [Example 119, (S)-2-(3-cyclopropyl-1,7-dimethyl-4-oxo-1,4-dihydro-5H-pyrazolo[3,4-d]pyridazin-5-yl)-N-(1-(p-tolyl)ethyl)acetamide]
25 | 17.4 nM | 182 nM | Cc1nn(CC(=O)N[C@@H](C)c2ccc(C(F)(F)F)cc2)c(=O)c2c(C3CC3)nn(C)c12 [Example 120, (S)-2-(3-cyclopropyl-1,7-dimethyl-4-oxo-1,4-dihydro-5H-pyrazolo[3,4-d]pyridazin-5-yl)-N-(1-(4-(trifluoromethyl)phenyl)ethyl)acetamide]
26 | 74.1 nM | 129 nM | COc1ccc([C@H](C)NC(=O)Cn2nc(C)c3c(c(C4CC4)nn3C)c2=O)cc1 [Example 121, (S)-2-(3-cyclopropyl-1,7-dimethyl-4-oxo-1,4-dihydro-5H-pyrazolo[3,4-d]pyridazin-5-yl)-N-(1-(4-methoxyphenyl)ethyl)acetamide]
